# Counter-ions that a name gives are not always drawn.
# Biological target: T1, human HSD-1 (recombinant HSD-1) (Homo sapiens, UniProt P28845)
# T1 construct: made in house
# Assay: HSD-1 activity inhibitory action in vitro (SPA, conversion of cortisone to cortisol)
# Format: biochemical
# Settings: recombinant human HSD-1 expressed using baculovirus system; 10 nM 3H cortisone, 500 μM NADPH; room temperature 90 to 120 min; read-out: hHSD1 (IC50 (nM))
# T1 sequence (P28845 whole entry): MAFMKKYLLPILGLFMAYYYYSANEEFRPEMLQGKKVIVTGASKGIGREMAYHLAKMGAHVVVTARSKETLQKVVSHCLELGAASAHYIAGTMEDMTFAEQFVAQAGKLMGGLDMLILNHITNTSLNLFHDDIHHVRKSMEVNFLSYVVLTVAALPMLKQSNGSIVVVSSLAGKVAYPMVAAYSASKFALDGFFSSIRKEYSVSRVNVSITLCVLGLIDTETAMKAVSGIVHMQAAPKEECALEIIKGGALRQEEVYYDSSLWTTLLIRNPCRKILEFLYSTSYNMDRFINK
row,IC50 [nM],Structure (SMILES)
1,< 30,"O=C(c1cnn(C2CCN(C(=O)N3CC[C@@H](O)C3)CC2)c1C1CC1)N1CC[C@@H](c2ccccc2C(F)(F)F)C1 [Example 21, 1-(5-cyclopropyl-1-{1-[(R)-3-hydroxypyrrolidine-1-carbonyl]piperidin-4-yl}-1H-pyrazole-4-carbonyl)-[(S)-3-(2-trifluoromethylphenyl)]pyrrolidine]"
2,< 30,"NC(=O)N1CCC(n2ncc(C(=O)N3CC[C@@H](c4ccccc4C(F)(F)F)C3)c2C2CC2)CC1 [Example 4, 1-[1-(1-carbamoylpiperidin-4-yl)-5-cyclopropyl-1H-pyrazole-4-carbonyl]-[(S)-3-(2-trifluoromethylphenyl)]pyrrolidine]"
3,< 30,"CC(C)N1CCN(C(=O)N2CCC(n3ncc(C(=O)N4CC[C@@H](c5ccccc5C(F)(F)F)C4)c3C3CC3)CC2)CC1 [Example 30, 1-{5-cyclopropyl-1-[1-(4-isopropylpiperazine-1-carbonyl)piperidin-4-yl]-1H-pyrazole-4-carbonyl}-[(S)-3-(2-trifluoromethylphenyl)]pyrrolidine hydrochloride]"
4,< 30,"CC1(NC(=O)N2CCC(n3ncc(C(=O)N4CC[C@@H](c5ccccc5C(F)(F)F)C4)c3C3CC3)CC2)CC1 [Example 126, 1-{5-cyclopropyl-1-[1-(1-methylcyclopropylcarbamoyl)piperidin-4-yl]-1H-pyrazole-4-carbonyl}-[(S)-3-(2-trifluoromethylphenyl)]pyrrolidine]"
5,< 30,"CC(=O)N1CCC(C(=O)N2CCC(n3ncc(C(=O)N4CC[C@@H](c5ccccc5C(F)(F)F)C4)c3C3CC3)CC2)CC1 [Example 91, 1-{1-[1-(1-acetylpiperidine-4-carbonyl)piperidin-4-yl]-5-cyclopropyl-1H-pyrazole-4-carbonyl}-[(S)-3-(2-trifluoromethylphenyl)]pyrrolidine]"
6,< 30,"O=C(c1cnn(C2CCN(C(=O)N3CCC(O)C3)CC2)c1C1CC1)N1CC[C@@H](c2ccccc2C(F)(F)F)C1 (stereo partly drawn) [Example 16, 1-{5-cyclopropyl-1-[1-(3-hydroxypyrrolidine-1-carbonyl)piperidin-4-yl]-1H-pyrazole-4-carbonyl}-[(S)-3-(2-trifluoromethylphenyl)]pyrrolidine]"
7,< 30,"N#Cc1ccccc1C1CCN(C(=O)c2cnn(C3CCN(C(=O)Nc4ccccc4F)CC3)c2C2CC2)C1 (stereo not shown) [Example 184, 3-(2-cyanophenyl)-1-{5-cyclopropyl-1-[1-(2-fluorophenylcarbamoyl)piperidin-4-yl]-1H-pyrazole-4-carbonyl}pyrrolidine]"
8,< 30,"CC(=O)N1CCC(OC(=O)N2CCC(n3ncc(C(=O)N4CC[C@@H](c5ccccc5C(F)(F)F)C4)c3C3CC3)CC2)CC1 [Example 63, 1-{1-[1-(1-acetylpiperidin-4-yl-oxycarbonyl)piperidin-4-yl]-5-cyclopropyl-1H-pyrazole-4-carbonyl}-[(S)-3-(2-trifluoromethylphenyl)]pyrrolidine]"
9,< 30,"CC(=O)NC1CCN(C(=O)N2CCC(n3ncc(C(=O)N4CC[C@@H](c5ccccc5C(F)(F)F)C4)c3C3CC3)CC2)CC1 [Example 39, 1-{1-[1-(4-acetylaminopiperidine-1-carbonyl)piperidin-4-yl]-5-cyclopropyl-1H-pyrazole-4-carbonyl}-[(S)-3-(2-trifluoromethylphenyl)]pyrrolidine]"
10,< 30,"CONC(=O)Nc1ccc(N2CCC(n3ncc(C(=O)N4CCC(c5ccccc5C(F)(F)F)C4)c3C3CC3)CC2)cc1 (stereo not shown) [Example 170, 1-(5-cyclopropyl-1-{1-[4-(3-methoxyureido)phenyl]piperidin-4-yl}-1H-pyrazole-4-carbonyl)-3-(2-trifluoromethylphenyl)pyrrolidine]"
11,< 30,"O=C(c1cnn(C2CCN(c3ncccc3Cl)CC2)c1C1CC1)N1CCC(c2cccnc2)C1 (stereo not shown) [Example 187, 1-{1-[1-(3-chloropyridin-2-yl)piperidin-4-yl]-5-cyclopropyl-1H-pyrazole-4-carbonyl}-3-(pyridin-3-yl)pyrrolidine]"
12,< 30,"CN1CCN(C(=O)N2CCC(n3ncc(C(=O)N4CC[C@@H](c5ccccc5C(F)(F)F)C4)c3C3CC3)CC2)CC1 [Example 29, 1-{5-cyclopropyl-1-[1-(4-methylpiperazine-1-carbonyl)piperidin-4-yl]-1H-pyrazole-4-carbonyl}-[(S)-3-(2-trifluoromethylphenyl)]pyrrolidine hydrochloride]"
13,< 30,"O=C(c1cnn(C2CCN(C(=O)N3CC(O)C3)CC2)c1C1CC1)N1CC[C@@H](c2ccccc2C(F)(F)F)C1 [Example 20, 1-{5-cyclopropyl-1-[1-(3-hydroxyazetidine-1-carbonyl)piperidin-4-yl]-1H-pyrazole-4-carbonyl}-[(S)-3-(2-trifluoromethylphenyl)]pyrrolidine]"
14,< 30,"O=C(Nc1ccc(F)cc1F)N1CCC(n2ncc(C(=O)N3CCC(c4ccccc4Cl)C3)c2C2CC2)CC1 (stereo not shown) [Example 136, 3-(2-chlorophenyl)-1-{5-cyclopropyl-1-[1-(2,4-difluorophenylcarbamoyl)piperidin-4-yl]-1H-pyrazole-4-carbonyl}pyrrolidine]"
15,< 30,"CC1(C(=O)N2CCC(n3ncc(C(=O)N4CC[C@@H](c5ccccc5C(F)(F)F)C4)c3C3CC3)CC2)CC1 [Example 69, 1-{5-cyclopropyl-1-[1-(1-methylcyclopropanecarbonyl)piperidin-4-yl]-1H-pyrazole-4-carbonyl}-[(S)-3-(2-trifluoromethylphenyl)]pyrrolidine]"
16,< 30,"O=C(N[C@H](CO)c1ccccc1)N1CCC(n2ncc(C(=O)N3CC[C@@H](c4ccccc4C(F)(F)F)C3)c2C2CC2)CC1 [Example 51, 1-(5-cyclopropyl-1-{1-[(S)-2-hydroxy-1-phenylethylcarbamoyl]piperidin-4-yl}-1H-pyrazole-4-carbonyl)-[(S)-3-(2-trifluoromethylphenyl)]pyrrolidine]"
17,< 30,"CC(C)(CO)C(=O)N1CCC(n2ncc(C(=O)N3CC[C@@H](c4ccccc4C(F)(F)F)C3)c2C2CC2)CC1 [Example 76, 1-{5-cyclopropyl-1-[1-(3-hydroxy-2,2-dimethylpropionyl)piperidin-4-yl]-1H-pyrazole-4-carbonyl}-[(S)-3-(2-trifluoromethylphenyl)]pyrrolidine]"
18,< 30,"NC(=O)CN1CCC(n2ncc(C(=O)N3CC[C@@H](c4ccccc4C(F)(F)F)C3)c2C2CC2)CC1 [Example 94, 1-[1-(1-carbamoylmethylpiperidin-4-yl)-5-cyclopropyl-1H-pyrazole-4-carbonyl]-[(S)-3-(2-trifluoromethylphenyl)]pyrrolidine hydrochloride]"
19,< 30,"O=C(c1cnn([C@H]2CC[C@H](c3nnn[nH]3)CC2)c1C1CC1)N1CC[C@@H](c2ccccc2C(F)(F)F)C1 [Example 132, 1-{5-cyclopropyl-1-[trans-4-(1H-tetrazol-5-yl)cyclohexyl]-1H-pyrazole-4-carbonyl}-[(S)-3-(2-trifluoromethylphenyl)]pyrrolidine]"
20,< 30,"COC(=O)N1CCC(n2ncc(C(=O)N3CC[C@@H](c4ccccc4C(F)(F)F)C3)c2C2CC2)CC1 [Example 57, 1-[5-cyclopropyl-1-(1-methoxycarbonylpiperidin-4-yl)-1H-pyrazole-4-carbonyl]-[(S)-3-(2-trifluoromethylphenyl)]pyrrolidine]"
21,< 30,"O=C(Nc1ccc(C(F)(F)F)cc1)N1CCC(n2ncc(C(=O)N3CCC(c4ccccc4C(F)(F)F)C3)c2C2CC2)CC1 (stereo not shown) [Example 141, 1-{5-cyclopropyl-1-[1-(4-trifluoromethylphenylcarbamoyl)piperidin-4-yl]-1H-pyrazole-4-carbonyl}-3-(2-trifluoromethylphenyl)pyrrolidine]"
22,< 30,"O=C(c1cnn(C2CCN(C(=O)N3CCC(F)(F)C3)CC2)c1C1CC1)N1CC[C@@H](c2ccccc2C(F)(F)F)C1 [Example 19, 1-{5-cyclopropyl-1-[1-(3,3-difluoropyrrolidine-1-carbonyl)piperidin-4-yl]-1H-pyrazole-4-carbonyl}-[(S)-3-(2-trifluoromethylphenyl)]pyrrolidine]"
23,< 30,O=C(c1cnn(C2CN(c3ccc(Cl)cn3)C2)c1C1CC1)N1CCC(c2ccccc2C(F)(F)F)C1 (stereo not shown) [Example 173]
24,< 30,"CC(=O)NC1CCN(C(=O)N2CCC(n3ncc(C(=O)N4CC[C@@H](c5ccccc5C(F)(F)F)C4)c3C3CC3)CC2)C1 (stereo partly drawn) [Example 40, 1-{1-[1-(3-acetylaminopyrrolidine-1-carbonyl)piperidin-4-yl]-5-cyclopropyl-1H-pyrazole-4-carbonyl}-[(S)-3-(2-trifluoromethylphenyl)]pyrrolidine]"
25,< 30,"O=C(COc1ccccc1)N1CCC(n2ncc(C(=O)N3CCC(c4cccnc4)C3)c2C2CC2)CC1 (stereo not shown) [Example 155, 1-{5-cyclopropyl-1-[1-(2-phenoxyacetyl)piperidin-4-yl]-1H-pyrazole-4-carbonyl}-3-(pyridin-3-yl)pyrrolidine]"
26,< 30,"CC1(c2c(C(=O)N3CCC(c4ccccc4CO)C3)cnn2C2CCN(c3ncccn3)CC2)CC1 (stereo not shown) [Example 180, 3-(2-hydroxymethylphenyl)-1-{5-(1-methylcyclopropyl)-1-[1-(pyrimidin-2-yl)piperidin-4-yl]-1H-pyrazole-4-carbonyl}pyrrolidine hydrochloride]"
27,< 30,"CC(C)[C@@H](C(=O)O)N(C)C(=O)N1CCC(n2ncc(C(=O)N3CCC(c4ccccc4C(F)(F)F)C3)c2C2CC2)CC1 (stereo partly drawn) [Example 142, 1-(5-cyclopropyl-1-{1-[((S)-1-carboxy-2-methyl-propyl)methylcarbamoyl]piperidin-4-yl}-1H-pyrazole-4-carbonyl)-3-(2-trifluoromethylphenyl)pyrrolidine]"
28,< 30,"CC(=O)N1CCC(NC(=O)N2CCC(n3ncc(C(=O)N4CC[C@@H](c5ccccc5C(F)(F)F)C4)c3C3CC3)CC2)CC1 [Example 43, 1-{1-[1-(1-acetylpiperidin-4-yl-carbamoyl)piperidin-4-yl]-5-cyclopropyl-1H-pyrazole-4-carbonyl}-[(S)-3-(2-trifluoromethylphenyl)]pyrrolidine]"

# — patent US20100010219A1, “METHOD FOR PRODUCING PYRROLIDINE COMPOUND” (JAPAN TOBACCO INC., priority 2006, published 2010)
